Reference: the supplement of paper PMC11061612

Tests used:
Capivasertib = compound: C1CN(CCC1(C(=O)N[C@@H](CCO)C2=CC=C(C=C2)Cl)N)C3=NC=NC4=C3C=CN4 [Capivasertib]; conditions: max 10 µM
Outline: (§1)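 Cancer cell lines were seeded into 1536-well plates in 7.5 μl medium (DMEM/F12 or RPMI, 10% FBS), held 24 hours at 37°C and 5% CO2, and dosed for 72 hours with final DMSO typically 0.2%. Luminescence from CellTiter-Glo 2.0, scaled between blank-well and DMSO-well means, served as viability. The single-agent IC50 was obtained from dose-response fits with a non-linear mixed effects model, each fit being a two-parameter logistic curve.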

Doxorubicin = compound: COc1cccc2c1C(=O)c1c(O)c3c(c(O)c1C2=O)C[C@@](O)(C(=O)CO)C[C@@H]3O[C@H]1C[C@H](N)[C@H](O)[C@H](C)O1 [Doxorubicin]; conditions: max 1 µM
Outline: as §1

AZD1390 = compound: CC(C)n1c(=O)n(C)c2cnc3cc(F)c(-c4ccc(OCCCN5CCCCC5)nc4)cc3c21 [AZD1390]; conditions: max 0.3 µM
Outline: as §1

Savolitinib = compound: C[C@@H](c1ccc2nccn2c1)n1nnc2ncc(-c3cnn(C)c3)nc21 [Savolitinib]; conditions: max 1 µM
Outline: as §1

Lapatinib = compound: CS(=O)(=O)CCNCc1ccc(-c2ccc3ncnc(Nc4ccc(OCc5cccc(F)c5)c(Cl)c4)c3c2)o1 [Lapatinib]; conditions: max 10 µM
Outline: as §1

Alisertib = compound: COc1cc(Nc2ncc3c(n2)-c2ccc(Cl)cc2C(c2c(F)cccc2OC)=NC3)ccc1C(=O)O [Alisertib]; conditions: max 10 µM
Outline: as §1

AZD1775 = compound: C=CCn1c(=O)c2cnc(Nc3ccc(N4CCN(C)CC4)cc3)nc2n1-c1cccc(C(C)(C)O)n1 [AZD1775]; conditions: max 3 µM
Outline: as §1

AZD4320 = compound: CN(CC[C@H](CSC1=CC=CC=C1)NC2=C(C=C(C=C2)S(=O)(=O)NC(=O)C3=CC=C(C=C3)N4CCC(CC4)[C@H](C5=CC=CC=C5C6=CC=C(C=C6)Cl)O)S(=O)(=O)C(F)(F)F)CCO [AZD4320]; conditions: max 1 µM
Outline: as §1

SG3199 = compound: CC1=CN2[C@@H](C1)C=NC3=CC(=C(C=C3C2=O)OC)OCCCCCOC4=C(C=C5C(=C4)N=C[C@@H]6CC(=CN6C5=O)C)OC [SG3199]; conditions: max 0.001 µM
Outline: as §1

Crizotinib = compound: C[C@@H](Oc1cc(-c2cnn(C3CCNCC3)c2)cnc1N)c1c(Cl)ccc(F)c1Cl [Crizotinib]; conditions: max 10 µM
Outline: as §1

AZD5153 = compound: COc1nnc2ccc(N3CCC(c4ccc(OCCN5CCN(C)C(=O)[C@H]5C)cc4)CC3)nn12 [AZD5153]; conditions: max 1 µM
Outline: as §1

Dasatinib = compound: CC1=C(C(=CC=C1)Cl)NC(=O)C2=CN=C(S2)NC3=CC(=NC(=N3)C)N4CCN(CC4)CCO [Dasatinib]; conditions: max 2 µM
Outline: as §1

AZD8186 = compound: C[C@@H](Nc1cc(F)cc(F)c1)c1cc(C(=O)N(C)C)cc2c(=O)cc(N3CCOCC3)oc12 [AZD8186]; conditions: max 3 µM
Outline: as §1

Trametinib = compound: CC(=O)Nc1cccc(-n2c(=O)n(C3CC3)c(=O)c3c(Nc4ccc(I)cc4F)n(C)c(=O)c(C)c32)c1 [Trametinib]; conditions: max 1 µM
Outline: as §1

AZD5991 = compound: Cc1c2c(nn1C)CSCc1cc(n(C)n1)CSc1cc(c3ccccc3c1)OCCCc1c(C(=O)O)n(C)c3c-2c(Cl)ccc13 [AZD5991]; conditions: max 1 µM
Outline: as §1

SN-38 = compound: CCc1c2c(nc3ccc(O)cc13)-c1cc3c(c(=O)n1C2)COC(=O)[C@]3(O)CC [SN-38]; conditions: max 0.3 µM
Outline: as §1

Taselisib = compound: Cc1nc(-c2cn3c(n2)-c2ccc(-c4cnn(C(C)(C)C(N)=O)c4)cc2OCC3)n(C(C)C)n1 [Taselisib]; conditions: max 10 µM
Outline: as §1

AZD6738 = compound: C[C@@H]1COCCN1C2=NC(=NC(=C2)C3(CC3)[S@](=N)(=O)C)C4=C5C=CNC5=NC=C4 [AZD6738]; conditions: max 10 µM
Outline: as §1

AZD2811 = compound: CCN(CCO)CCCOc1ccc2c(Nc3cc(CC(=O)Nc4cccc(F)c4)[nH]n3)ncnc2c1 [AZD2811]; conditions: max 1 µM
Outline: as §1

Gefitinib = compound: COc1cc2ncnc(Nc3ccc(F)c(Cl)c3)c2cc1OCCCN1CCOCC1 [Gefitinib]; conditions: max 10 µM
Outline: as §1

Prexasertib = compound: COc1cccc(OCCCN)c1-c1cc(Nc2cnc(C#N)cn2)n[nH]1 [Prexasertib]; conditions: max 1 µM
Outline: as §1

MK-2206 = compound: NC1(c2ccc(-c3nc4ccn5c(=O)[nH]nc5c4cc3-c3ccccc3)cc2)CCC1 [MK-2206]; conditions: max 10 µM
Outline: as §1

Palbociclib = compound: CC(=O)c1c(C)c2cnc(Nc3ccc(N4CCNCC4)cn3)nc2n(C2CCCC2)c1=O [Palbociclib]; conditions: max 10 µM
Outline: as §1

Olaparib = compound: O=C(c1cc(Cc2n[nH]c(=O)c3ccccc23)ccc1F)N1CCN(C(=O)C2CC2)CC1 [Olaparib]; conditions: max 10 µM
Outline: as §1

AZD7648 = compound: Cc1cc2ncnn2cc1Nc1ncc2c(n1)n(C1CCOCC1)c(=O)n2C [AZD7648]; conditions: max 10 µM
Outline: as §1

AZD0156 = compound: CN(C)CCCOc1ccc(-c2ccc3ncc4c(c3c2)n(C2CCOCC2)c(=O)n4C)cn1 [AZD0156]; conditions: max 3 µM
Outline: as §1

Selumetinib = compound: Cn1cnc2c(F)c(Nc3ccc(Br)cc3Cl)c(C(=O)NOCCO)cc21 [Selumetinib]; conditions: max 10 µM
Outline: as §1

Venetoclax = compound: CC1(C)CCC(CN2CCN(c3ccc(C(=O)NS(=O)(=O)c4ccc(NCC5CCOCC5)c([N+](=O)[O-])c4)c(Oc4cnc5[nH]ccc5c4)c3)CC2)=C(c2ccc(Cl)cc2)C1 [Venetoclax]; conditions: max 1 µM
Outline: as §1

Cell Line	IC50, cell viability 72 h (Capivasertib)	IC50, cell viability 72 h (Doxorubicin)	IC50, cell viability 72 h (AZD1390)	IC50, cell viability 72 h (Savolitinib)	IC50, cell viability 72 h (Lapatinib)	IC50, cell viability 72 h (Alisertib)	IC50, cell viability 72 h (AZD1775)	IC50, cell viability 72 h (AZD4320)	IC50, cell viability 72 h (SG3199)	IC50, cell viability 72 h (Crizotinib)	IC50, cell viability 72 h (AZD5153)	IC50, cell viability 72 h (Dasatinib)	IC50, cell viability 72 h (AZD8186)	IC50, cell viability 72 h (Trametinib)	IC50, cell viability 72 h (AZD5991)	IC50, cell viability 72 h (SN-38)	IC50, cell viability 72 h (Taselisib)	IC50, cell viability 72 h (AZD6738)	IC50, cell viability 72 h (AZD2811)	IC50, cell viability 72 h (Gefitinib)	IC50, cell viability 72 h (Prexasertib)	IC50, cell viability 72 h (MK-2206)	IC50, cell viability 72 h (Palbociclib)	IC50, cell viability 72 h (Olaparib)	IC50, cell viability 72 h (AZD7648)	IC50, cell viability 72 h (AZD0156)	IC50, cell viability 72 h (Selumetinib)	IC50, cell viability 72 h (Venetoclax)
HCC1937 (Breast Carcinoma)	> 10000 nM	> 1000 nM	> 300 nM	> 1000 nM	> 10000 nM	> 10000 nM	643 nM	> 1000 nM	> 1 nM	> 10000 nM	> 1000 nM	> 2000 nM	> 3000 nM	> 1000 nM	> 1000 nM	> 300 nM	9150 nM	> 10000 nM	> 1000 nM	> 10000 nM	318 nM	> 10000 nM	> 10000 nM	> 10000 nM	> 10000 nM	> 3000 nM	> 10000 nM	> 1000 nM
EW-1 (Ewing's Sarcoma)	> 10000 nM	317 nM	> 300 nM	> 1000 nM	> 10000 nM	4900 nM	294 nM	586 nM	> 1 nM	2040 nM	357 nM	> 2000 nM	> 3000 nM	> 1000 nM	> 1000 nM	4.54 nM	640 nM	2480 nM	> 1000 nM	> 10000 nM	10.9 nM	–	5210 nM	6670 nM	> 10000 nM	> 3000 nM	> 10000 nM	> 1000 nM
LC-1-sq (Squamous Cell Lung Carcinoma)	> 10000 nM	> 1000 nM	> 300 nM	> 1000 nM	> 10000 nM	> 10000 nM	294 nM	> 1000 nM	> 1 nM	> 10000 nM	490 nM	> 2000 nM	> 3000 nM	> 1000 nM	> 1000 nM	> 300 nM	> 10000 nM	2130 nM	> 1000 nM	> 10000 nM	16.4 nM	–	> 10000 nM	> 10000 nM	> 10000 nM	> 3000 nM	> 10000 nM	> 1000 nM
KOPN-8 (B-Lymphoblastic Leukemia)	4980 nM	106 nM	> 300 nM	> 1000 nM	> 10000 nM	23.4 nM	314 nM	11 nM	> 1 nM	2770 nM	28.5 nM	> 2000 nM	> 3000 nM	36.9 nM	43.4 nM	2.7 nM	> 10000 nM	725 nM	37.7 nM	> 10000 nM	19.8 nM	8590 nM	2620 nM	6850 nM	> 10000 nM	> 3000 nM	6210 nM	50 nM
NCI-H1092 (Small Cell Lung Carcinoma)	> 10000 nM	> 1000 nM	> 300 nM	> 1000 nM	> 10000 nM	> 10000 nM	2940 nM	152 nM	> 1 nM	> 10000 nM	> 1000 nM	> 2000 nM	> 3000 nM	> 1000 nM	819 nM	> 300 nM	> 10000 nM	> 10000 nM	> 1000 nM	> 10000 nM	144 nM	> 10000 nM	> 10000 nM	> 10000 nM	> 10000 nM	> 3000 nM	> 10000 nM	> 1000 nM
Hey (Ovarian Carcinoma)	> 10000 nM	398 nM	> 300 nM	> 1000 nM	> 10000 nM	1240 nM	1200 nM	> 1000 nM	> 1 nM	> 10000 nM	476 nM	450 nM	> 3000 nM	59.8 nM	> 1000 nM	32 nM	7990 nM	6180 nM	> 1000 nM	> 10000 nM	128 nM	–	> 10000 nM	> 10000 nM	> 10000 nM	> 3000 nM	3040 nM	> 1000 nM
ALL-SIL (T-Lymphoblastic Leukemia)	> 10000 nM	146 nM	> 300 nM	> 1000 nM	> 10000 nM	44.7 nM	449 nM	9.78 nM	> 1 nM	244 nM	237 nM	< 2 nM	> 3000 nM	> 1000 nM	141 nM	1.52 nM	6050 nM	1430 nM	4.94 nM	> 10000 nM	5.65 nM	–	> 10000 nM	> 10000 nM	> 10000 nM	> 3000 nM	> 10000 nM	257 nM
NCI-H2122 (Lung Adenocarcinoma)	4950 nM	> 1000 nM	> 300 nM	> 1000 nM	6230 nM	65 nM	547 nM	> 1000 nM	> 1 nM	1920 nM	115 nM	> 2000 nM	> 3000 nM	13.8 nM	> 1000 nM	40.5 nM	373 nM	1140 nM	347 nM	5670 nM	29.1 nM	–	1910 nM	> 10000 nM	> 10000 nM	> 3000 nM	496 nM	> 1000 nM
HCC2998 (Colorectal Carcinoma)	> 10000 nM	389 nM	> 300 nM	> 1000 nM	> 10000 nM	> 10000 nM	981 nM	485 nM	> 1 nM	> 10000 nM	314 nM	> 2000 nM	> 3000 nM	14.1 nM	259 nM	144 nM	5390 nM	3120 nM	> 1000 nM	> 10000 nM	18.8 nM	–	> 10000 nM	> 10000 nM	> 10000 nM	> 3000 nM	382 nM	> 1000 nM
EJM (Plasma Cell Myeloma)	> 10000 nM	837 nM	> 300 nM	> 1000 nM	> 10000 nM	> 10000 nM	202 nM	> 1000 nM	> 1 nM	6790 nM	414 nM	> 2000 nM	> 3000 nM	> 1000 nM	332 nM	25.9 nM	> 10000 nM	1650 nM	> 1000 nM	> 10000 nM	8.91 nM	–	> 10000 nM	> 10000 nM	> 10000 nM	> 3000 nM	> 10000 nM	> 1000 nM
